# Results as given in US11311522B1 (Cavion, Inc., priority 2018, dated 2022).
# How the values were obtained:
# [1] = test system: patients with essential tremor; experiment: T-CALM: PK/PD, Cmin versus TETRAS-PS (Hill equation); format: in vivo, human
# Description: Pharmacodynamic variables (Response) evaluated included change from baseline in TETRAS performance subscale, TETRAS activities of daily living, TETRAS total score.
# [2] = target: cannabinoid 2 receptor (CB2) (Homo sapiens, UniProt P34972); experiment: Cannabinoid 2 receptor binding
# CYP3A4 and CYP2C9 = experiment: In vitro metabolism (liver microsomes, hepatocytes, recombinant CYPs, anti-CYP antibodies); format: in vitro ADME, human; conditions: 10 μM CX-8998
# Description: (§1) Glucuronide conjugates of the oxygenated metabolites are detected in human, monkey, and dog hepatocyte preparations. […] However, the abundance of CYP3A5, CYP2C19, and CYP2D6 in human liver microsomes is low (2%-5%) relative to the primary contributors, CYP3A4 (˜30%) and CYP2C9 (˜20%). […] Information on reproductive and developmental toxicology was obtained in a 28-day pivotal female fertility study in rats and in preliminary embryo-fetal development studies in rats and rabbits.
# [3] = Excretion of 14C-labeled CX-8998 in rats; format: in vivo, rat; conditions: 20 mg/kg oral
# Description: as §1
# Cav3 = test system: T1, Cav3; experiment: Cav3 potency and state dependency, summary of Cav3 antagonist pharmacological properties; format: cell-based
# T1 construct: rows headed: Cav3 potency
# in vivo = conditions: female, rat, po
# [4] = test system: patients with essential tremor; experiment: T-CALM: TETRAS performance subscale (TETRAS-PS); conditions: for >5 to 10 point worsening / >10 point worsening: TETRAS-PS
# [5] = Cardiovascular telemetry in conscious dogs, oral; conditions: dog
# cardiovascular function = experiment: Cardiovascular telemetry in conscious dogs, oral
# [6] = Exploratory embryofetal development study in rabbits
# [7] = Day 28, independent video raters
# [8] = Independent Video Raters, subgroup Baseline TETRAS-PS Severity <=Median, N=22
# [9] = Independent Video Raters, subgroup Baseline TETRAS-PS Severity > Median, N=16
# [10] = Independent Video Raters, subgroup No Beta-blocker Use at Day 1, N=20
# [11] = Independent Video Raters, subgroup No Concurrent Tremor Medication at Day 1, N=14
# [12] = Independent Video Raters, subgroup Using Beta-blocker at Day 1, N=18
# [13] = Independent Video Raters, subgroup Using Concurrent Tremor Medication at Day 1, N=24
# [14] = Investigator Rated, subgroup Baseline TETRAS-PS Severity <=Median, N=22
# [15] = Investigator Rated, subgroup Baseline TETRAS-PS Severity > Median, N=15
# [16] = Investigator Rated, subgroup No Beta-blocker Use at Day 1, N=19
# [17] = Investigator Rated, subgroup No Concurrent Tremor Medication at Day 1, N=14
# [18] = Investigator Rated, subgroup Using Beta-blocker at Day 1, N=18
# [19] = Investigator Rated, subgroup Using Concurrent Tremor Medication at Day 1, N=23
# [20] = Dutch Belted rabbit, oral gavage GD 7 through GD 20
# Chain of cannabinoid 2 receptor (CB2) (P34972 whole entry, species assumed): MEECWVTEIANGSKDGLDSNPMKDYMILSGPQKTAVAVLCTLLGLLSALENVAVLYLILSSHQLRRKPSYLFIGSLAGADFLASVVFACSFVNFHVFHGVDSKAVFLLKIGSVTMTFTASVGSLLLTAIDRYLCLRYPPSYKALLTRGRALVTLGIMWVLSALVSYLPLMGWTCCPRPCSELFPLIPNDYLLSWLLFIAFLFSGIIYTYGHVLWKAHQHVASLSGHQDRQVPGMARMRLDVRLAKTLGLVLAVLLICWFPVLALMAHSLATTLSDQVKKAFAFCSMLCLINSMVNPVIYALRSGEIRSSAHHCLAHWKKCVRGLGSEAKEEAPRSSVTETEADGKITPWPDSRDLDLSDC
compound,measurement,setting,value
CC(C)c1ccc(CC(=O)N[C@H](C)c2ccc(OCC(F)(F)F)cn2)cc1 [CX-8998],"Emax, change from baseline in TETRAS-PS",[1]; Cmin at steady state,approximately −4.1
same,EC50,"[1]; Homo sapiens, TETRAS-PS",~250 nM
same,inhibition at 10 µM,[2]; 10 μM,53%
same,IC50,[2]; calculated,5340 nM
same,Inhibition of metabolism by antihuman CYP3A and CYP2C antibodies,CYP3A4 and CYP2C9,> 90%
same,Dose excreted in feces as unchanged drug,[3],Less than 1%
same,Radioactivity in feces,[3],approximately 5%
same,Radioactivity recovered in bile,[3],46%
same,Radioactivity recovered in urine,[3],43%
same,Recovered radioactivity excreted in the first day,[3],> 85%
same,Recovery of label after 72 hours,[3],~96%
same,IC50,Cav3,70 to 100 nM
same,AUC,in vivo; 10 mg/kg/day,20.7 µM·h
same,Tmax,in vivo; 10 mg/kg/day,3.4 h
same,AUC,in vivo; 100 mg/kg/day,94.6 µM·h
same,AUC,in vivo; 500 mg/kg/day,219 µM·h
same,Tmax,in vivo; 500 mg/kg/day,4.8 h
same,"Change from baseline in TETRAS-PS rated by physician, LS mean",[4]; Day 15 (8 mg BID),−3.1
same,"Change from baseline in TETRAS-PS rated by physician, LS mean",[4]; Day 28 (10 mg BID),−4.6
same,TETRAS-PS LS mean difference from placebo (95% CI),[4]; [7],"0.5 (−1.5, 2.5)"
same,"TETRAS-PS total score, Mean (SD)",[4]; [7],21.1 (6.71)
same,"TETRAS-PS total score, Median",[4]; [7],20.0
same,TETRAS-PS LS mean difference from placebo (95% CI),"[4]; Day 28, investigator rated","−2.0 (−4.0, 0.0)"
same,"TETRAS-PS total score, Median","[4]; Day 28, investigator rated",22.5
same,"TETRAS-PS Total Score change from baseline to Day 28, LS mean difference from placebo (95% CI)","[4]; Independent Video Raters, subgroup Baseline TETRAS-PS Severity <=Median","1.2 (−1.1, 3.4)"
same,"TETRAS-PS Total Score change from baseline to Day 28, LS mean (SE)",[4]; [8],−0.6 (0.82)
same,"TETRAS-PS Total Score change from baseline to Day 28, Median (minimum, maximum)",[4]; [8],"0 (−9.5, 7.0)"
same,"TETRAS-PS Total Score change from baseline to Day 28, Mean (SD)","[4]; Independent Video Raters, subgroup Baseline TETRAS-PS Severity <=Median, N=22, titrated up to 10 mg BID",−0.1 (3.98)
same,"TETRAS-PS Total Score change from baseline to Day 28, LS mean difference from placebo (95% CI)","[4]; Independent Video Raters, subgroup Baseline TETRAS-PS Severity > Median","−1.3 (−4.8, 2.3)"
same,"TETRAS-PS Total Score change from baseline to Day 28, LS mean (SE)",[4]; [9],−3.5 (1.47)
same,"TETRAS-PS Total Score change from baseline to Day 28, Mean (SD)",[4]; [9],−3.6 (4.14)
same,"TETRAS-PS Total Score change from baseline to Day 28, Median (minimum, maximum)",[4]; [9],"−3.0 (−11, 2.5)"
same,"TETRAS-PS Total Score change from baseline to Day 28, LS mean difference from placebo (95% CI)","[4]; Independent Video Raters, subgroup No Beta-blocker Use at Day 1","−1.2 (−4.3, 1.8)"
same,"TETRAS-PS Total Score change from baseline to Day 28, LS mean (SE)",[4]; [10],−1.3 (1.10)
same,"TETRAS-PS Total Score change from baseline to Day 28, Mean (SD)",[4]; [10],−1.6 (4.99)
same,"TETRAS-PS Total Score change from baseline to Day 28, Median (minimum, maximum)",[4]; [10],"−2.0 (−11, 7.0)"
same,"TETRAS-PS Total Score change from baseline to Day 28, LS mean difference from placebo (95% CI)","[4]; Independent Video Raters, subgroup No Concurrent Tremor Medication at Day 1","−2.0 (−5.8, 1.8)"
same,"TETRAS-PS Total Score change from baseline to Day 28, LS mean (SE)",[4]; [11],−4.3 (2.05)
same,"TETRAS-PS Total Score change from baseline to Day 28, Median (minimum, maximum)",[4]; [11],"−3.3 (−11, 7.0)"
same,"TETRAS-PS Total Score change from baseline to Day 28, LS mean difference from placebo (95% CI)","[4]; Independent Video Raters, subgroup Using Beta-blocker at Day 1","1.4 (−1.4, 4.3)"
same,"TETRAS-PS Total Score change from baseline to Day 28, LS mean (SE)",[4]; [12],−2.5 (1.36)
same,"TETRAS-PS Total Score change from baseline to Day 28, Mean (SD)",[4]; [12],−1.5 (3.68)
same,"TETRAS-PS Total Score change from baseline to Day 28, Median (minimum, maximum)",[4]; [12],"−1.3 (−9.5, 4.0)"
same,"TETRAS-PS Total Score change from baseline to Day 28, LS mean difference from placebo (95% CI)","[4]; Independent Video Raters, subgroup Using Concurrent Tremor Medication at Day 1","1.8 (−0.7, 4.3)"
same,"TETRAS-PS Total Score change from baseline to Day 28, LS mean (SE)",[4]; [13],−1.6 (1.14)
same,"TETRAS-PS Total Score change from baseline to Day 28, Mean (SD)",[4]; [13],−1.1 (3.71)
same,"TETRAS-PS Total Score change from baseline to Day 28, Median (minimum, maximum)",[4]; [13],"−1.3 (−9.5, 5.5)"
same,"TETRAS-PS Total Score change from baseline to Day 28, LS mean difference from placebo (95% CI)","[4]; Investigator Rated, subgroup Baseline TETRAS-PS Severity <=Median","−1.2 (−3.1, 0.6)"
same,"TETRAS-PS Total Score change from baseline to Day 28, LS mean (SE)",[4]; [14],−3.8 (0.67)
same,"TETRAS-PS Total Score change from baseline to Day 28, Mean (SD)",[4]; [14],−3.4 (3.74)
same,"TETRAS-PS Total Score change from baseline to Day 28, Median (minimum, maximum)",[4]; [14],"−3.0 (−13.5, 1.0)"
same,"TETRAS-PS Total Score change from baseline to Day 28, LS mean difference from placebo (95% CI)","[4]; Investigator Rated, subgroup Baseline TETRAS-PS Severity > Median","−3.5 (−7.4, 0.4)"
same,"TETRAS-PS Total Score change from baseline to Day 28, LS mean (SE)",[4]; [15],−5.6 (1.60)
same,"TETRAS-PS Total Score change from baseline to Day 28, Mean (SD)",[4]; [15],−5.8 (4.48)
same,"TETRAS-PS Total Score change from baseline to Day 28, Median (minimum, maximum)",[4]; [15],"−6.0 (−13, 4.5)"
same,"TETRAS-PS Total Score change from baseline to Day 28, LS mean difference from placebo (95% CI)","[4]; Investigator Rated, subgroup No Beta-blocker Use at Day 1","−4.3 (−7.0, −1.7)"
same,"TETRAS-PS Total Score change from baseline to Day 28, LS mean (SE)",[4]; [16],−5.6 (0.97)
same,"TETRAS-PS Total Score change from baseline to Day 28, Mean (SD)",[4]; [16],−4.5 (3.89)
same,"TETRAS-PS Total Score change from baseline to Day 28, Median (minimum, maximum)",[4]; [16],"−4.0 (−12.4, 1.0)"
same,"TETRAS-PS Total Score change from baseline to Day 28, LS mean difference from placebo (95% CI)","[4]; Investigator Rated, subgroup No Concurrent Tremor Medication at Day 1","−4.4 (−7.4, −1.3)"
same,"TETRAS-PS Total Score change from baseline to Day 28, LS mean (SE)",[4]; [17],−6.2 (1.60)
same,"TETRAS-PS Total Score change from baseline to Day 28, Mean (SD)",[4]; [17],−5.0 (3.97)
same,"TETRAS-PS Total Score change from baseline to Day 28, Median (minimum, maximum)",[4]; [17],"−4.5 (−12.5, 1.0)"
same,"TETRAS-PS Total Score change from baseline to Day 28, LS mean difference from placebo (95% CI)","[4]; Investigator Rated, subgroup Using Beta-blocker at Day 1","−0.3 (−3.6, 3.0)"
same,"TETRAS-PS Total Score change from baseline to Day 28, LS mean (SE)",[4]; [18],−3.6 (1.56)
same,"TETRAS-PS Total Score change from baseline to Day 28, Mean (SD)",[4]; [18],−4.2 (4.55)
same,"TETRAS-PS Total Score change from baseline to Day 28, Median (minimum, maximum)",[4]; [18],"−4.0 (−13.5, 4.5)"
same,"TETRAS-PS Total Score change from baseline to Day 28, LS mean difference from placebo (95% CI)","[4]; Investigator Rated, subgroup Using Concurrent Tremor Medication at Day 1","−0.5 (−3.2, 2.3)"
same,"TETRAS-PS Total Score change from baseline to Day 28, LS mean (SE)",[4]; [19],−3.5 (1.29)
same,"TETRAS-PS Total Score change from baseline to Day 28, Mean (SD)",[4]; [19],−3.9 (4.31)
same,"TETRAS-PS Total Score change from baseline to Day 28, Median (minimum, maximum)",[4]; [19],"−3.5 (−13.5, 4.5)"
same,>5 to 10 point worsening,[4]; Day 15,0 n (%)
same,>10 point worsening,[4]; Day 15,0 n (%)
same,>5 to 10 point worsening,[4]; Day 28,0 n (%)
same,>10 point worsening,[4]; Day 28,0 n (%)
same,"TETRAS-PS change from baseline to Day 28, Mean (SD)",[4]; independent video raters,−1.6 (4.36)
same,"TETRAS-PS change from baseline to Day 28, Median",[4]; independent video raters,−1.5
same,"TETRAS-PS change from baseline to Day 28, Mean (SD)",[4]; investigator rated,−4.4 (4.16)
same,"TETRAS-PS change from baseline to Day 28, Median",[4]; investigator rated,−4.0
same,NOAEL,[5]; in vivo,20 mg/kg
same,Cmax,"[5]; plasma, po, 20 mg/kg",~30 µM
same,Peak change in QT interval,cardiovascular function; 20 mg/kg oral,-27 ms
same,Peak change in heart rate,cardiovascular function; 20 mg/kg oral,+28 beats/min
same,Peak decrease in QT interval,cardiovascular function; 300 mg/kg oral,-14 ms
same,Peak increase in heart rate,cardiovascular function; 300 mg/kg oral,+47 beats/min
same,NOEL,"cardiovascular function; dog, in vivo",2 mg/kg
same,Developmental toxicity,"[6]; 30, 100, or 300 mg/kg/day",No evidence of developmental toxicity
same,dose at which maternal toxicity was excessive,[6]; [20],1000 mg/kg/day
same,dose at which maternal toxicity was observed,[6]; [20],≥30 mg/kg/day and was excessive at
same,Doses with maternal toxicity,"[6]; rabbit, in vivo",≥ 30 mg/kg/day
